Starred links: 1 amine or outer side, 2 acyl side, 3 side chain; linkers in the order of their positions; H or OH if unused. Non-standard residues stand in square brackets, D forms with d. Residues, ends and D or L forms follow the SMILES beside them. ξ: configuration not given here. Phe(ψ(S)CH(OH)CH2N)Pro = O=C([C@@H]1CCCN1C[C@H](O)[C@H](Cc1ccccc1)N[*:1])[*:2]; Pheψ(R-CH(OH)CH2N)Pro = O=C([C@@H]1CCCN1C[C@@H](O)[C@H](Cc1ccccc1)N[*:1])[*:2]; Sta = CC(C)C[C@H](N)[C@@H](O)CC(=O)O; ξIva = CCC(C)(N)C(=O)O
What follows are molecules tested against Human immunodeficiency virus type 1 protease (Human immunodeficiency virus 1, UniProt Q72874) (assay: Inhibitory potency against HIV-1 protease).

Compound | IC50 [nM]
CC[C@H](C)[C@H](NC(=O)[C@@H](CC(C)C)C(O)C(O)[C@H](CC1CCCCC1)NC(=O)[C@H](Cc1c[nH]cn1)NC(=O)COc1cccc2ccccc12)C(=O)NCc1ccccn1 (stereo partly specified) | 11.2
CC[C@H](C)[C@H](NC(=O)[C@@H](C(C)C)C(O)C(O)[C@H](CC1CCCCC1)NC(=O)[C@H](Cc1c[nH]cn1)NC(=O)COc1cccc2ccccc12)C(=O)NCc1ccccn1 (stereo partly specified) | 1.8
CC[C@H](C)[C@H](NC(=O)[C@@H]1CCCN1CC(O)[C@H](Cc1ccccc1)NC(=O)[C@H](CC(N)=O)NC(=O)c1ccc2ccccc2n1)C(=O)N[C@@H](Cc1ccccc1)C(=O)OC (stereo partly specified) | 2.3
CC[C@H](C)[C@H](NC(=O)[C@@H]1CCCN1C[C@@H](O)[C@H](Cc1ccccc1)NC(=O)[C@H](CC(N)=O)NC(=O)OCc1ccccc1)C(=O)N[C@H](C(=O)OC)C(C)C | 13
CC[C@H](C)CNC(=O)[C@@H](C(C)C)C(O)C(O)[C@H](Cc1c[nH]cn1)NC(=O)COc1ccccc1 (stereo partly specified) | 809
CC[C@H](C)[C@H](NC(=O)[C@@H](C(C)C)C(O)C(O)[C@H](CC(C)C)NC(=O)[C@H](Cc1c[nH]cn1)NC(=O)[C@H](Cc1ccccc1)NC(=O)OC(C)(C)C)C(=O)NCc1ccccn1 (stereo partly specified) | 63
CCC(C)(NC(=O)[C@@H](NC(=O)[C@@H](NC(=O)C[C@H](O)[C@H](CC(C)C)NC(=O)[C@H](C)NC(=O)C[C@H](O)[C@@H](N)CC(C)C)C(C)C)C(C)C)C(=O)O (stereo partly specified) (H-[Sta]A[Sta]VV[ξIva]-OH) | 12000
CC(C)(C)OC(=O)[C@@H]1CCCN1CC(O)[C@H](Cc1ccccc1)NC(=O)[C@H](CC(N)=O)NC(=O)OCc1ccccc1 (stereo partly specified) | 140
CC(C)(C)NC(=O)[C@@H]1C[C@@H]2CCCC[C@@H]2CN1C[C@H](O)[C@H](Cc1ccccc1)NC(=O)[C@H](CC(N)=O)NC(=O)OCc1ccccc1 | 2.7
CC[C@H](C)[C@H](NC(=O)[C@@H](C(C)C)C(O)C(O)[C@H](CC(C)C)NC(=O)[C@H](Cc1c[nH]cn1)NC(=O)COc1cccc2ccccc12)C(=O)NCc1ccccn1 (stereo partly specified) | 11.2
CC[C@H](C)[C@H](NC(=O)[C@H](CC(C)C)C(O)C(O)[C@H](CC(C)C)NC(=O)[C@H](Cc1c[nH]cn1)NC(=O)COc1cccc2ccccc12)C(=O)NCc1ccccn1 (stereo partly specified) | 15.7
CC(C)(C)OC(=O)N[C@@H](CC(N)=O)C(=O)N[C@@H](Cc1ccccc1)C(O)C[C@@H](Cc1ccccc1)C(=O)N[C@H]1c2ccccc2C[C@H]1O (stereo partly specified) | 295
COC(=O)[C@@H](NC(=O)[C@H](CC(C)C)NC(=O)[C@@H]1CCCN1C[C@@H](O)[C@H](Cc1ccccc1)NC(=O)[C@H](CC(N)=O)NC(=O)[C@H](CC(C)C)NC(=O)[C@H](CO)NC(C)=O)C(C)C (Ac-SLN[Pheψ(R-CH(OH)CH2N)Pro]LV-OMe) | 3.4
CC[C@H](C)[C@H](N)C(=O)N[C@@H](CCC(N)=O)C(=O)N[C@@H](CC(C)C)[C@@H](O)CC(=O)N[C@@H](CC(N)=O)C(=O)N[C@@H](Cc1ccccc1)C(=O)N[C@@H](CO)C(=O)O (H-IQ[Sta]NFS-OH) | 12000
CC(C)(C)OC(=O)[C@@H]1CCCN1C[C@H](O)[C@H](Cc1ccccc1)NC(=O)OCc1ccccc1 | 6500
CC(C)(C)OC(=O)N[C@@H](Cc1ccccc1)C(O)C[C@@H](Cc1ccccc1)C(=O)N[C@H]1c2ccccc2C[C@H]1O (stereo partly specified) | 252
CC[C@H](C)CNC(=O)[C@@H](C(C)C)C(O)C(O)[C@H](CC(C)C)NC(=O)[C@H](Cc1c[nH]cn1)NC(=O)[C@H](Cc1ccccc1)NC(=O)OC(C)(C)C (stereo partly specified) | 809

Compound | IC50 [nM]
CC[C@H](C)[C@H](NC(=O)[C@@H]1C[C@@H]2CCCC[C@@H]2CN1C[C@@H](O)[C@H](Cc1ccccc1)NC(=O)[C@H](CC(N)=O)NC(=O)OCc1ccccc1)C(=O)N[C@H](C(=O)OC)C(C)C | 316
CC(C)(C)NC(=O)[C@@H]1C[C@@H]2CCCC[C@@H]2CN1C[C@@H](O)[C@H](Cc1ccccc1)NC(=O)[C@H](CC(N)=O)NC(=O)OCc1ccccc1 | 316
CC[C@H](C)[C@H](NC(=O)[C@@H](C(C)C)C(O)C(O)[C@H](CC1CCCCC1)NC(=O)[C@H](Cc1c[nH]cn1)NC(=O)CN)C(=O)NCc1ccccn1 (stereo partly specified) | 24.8
CC[C@H](C)[C@H](NC(=O)[C@@H](C(C)C)C(O)C(O)[C@H](CC1CCCCC1)NC(=O)CC1CCCCC1)C(=O)NCc1ccccn1 (stereo partly specified) | 49.5
CC[C@H](C)[C@H](NC(=O)[C@@H]1CCCN1CC(O)[C@H](Cc1ccccc1)NC(=O)[C@H](CC(N)=O)NC(=O)OCc1ccccc1)C(=O)N[C@H](C(=O)OC)C(C)C (stereo partly specified) | 316
CC(C)(C)NC(=O)C1CCCCN1C[C@H](O)[C@H](Cc1ccccc1)NC(=O)C(CC#N)NC(=O)OCc1ccccc1 (stereo partly specified) | 23
COC(=O)[C@@H](NC(=O)[C@H](CC(C)C)NC(=O)[C@@H]1CCCN1C[C@H](O)[C@H](Cc1ccccc1)NC(=O)[C@H](CC(N)=O)NC(=O)[C@H](CC(C)C)NC(=O)[C@H](CO)NC(C)=O)C(C)C (Ac-SLN[Phe(ψ(S)CH(OH)CH2N)Pro]LV-OMe) | 65
CC(C)(C)NC(=O)[C@@H]1CCCN1C[C@H](O)[C@H](Cc1ccccc1)NC(=O)[C@H](CC(N)=O)NC(=O)OCc1ccccc1 | 210
CC[C@H](C)[C@H](NC(=O)[C@@H](C(C)C)C(O)C(O)[C@H](CC1CCCCC1)NC(=O)[C@H](Cc1c[nH]cn1)NC(=O)COc1ccccc1)C(=O)NCc1ccccn1 (stereo partly specified) | 4.5
CC[C@H](C)[C@H](NC(=O)[C@@H](C(C)C)C(O)C(O)[C@H](Cc1c[nH]cn1)NC(=O)COc1ccccc1)C(=O)NCc1ccccn1 (stereo partly specified) | 11.2
CC[C@H](C)[C@H](NC(=O)[C@@H]1CCCN1C[C@@H](O)[C@H](Cc1ccccc1)NC(=O)[C@H](CC(N)=O)NC(=O)OCc1ccccc1)C(=O)N[C@@H](Cc1ccccc1)C(=O)OC | 4
CC[C@@H](C)[C@H](NC(=O)[C@@H](CC(C)C)C(O)C(O)[C@H](CC(C)C)NC(=O)C(Cc1c[nH]cn1)NC(=O)COc1cccc2ccccc12)C(=O)NCc1ccccn1 (stereo partly specified) | 495
CC[C@H](C)[C@H](NC(=O)[C@@H](C(C)C)C(O)C(O)[C@H](CC1CCCCC1)NC(=O)[C@H](Cc1c[nH]cn1)NC(=O)CO)C(=O)NCc1ccccn1 (stereo partly specified) | 8.99
COC(=O)[C@@H](NC(=O)[C@H](CC(C)C)NC(=O)[C@@H]1CCCN1C[C@H](O)[C@H](Cc1ccccc1)NC(=O)[C@H](CC(N)=O)NC(=O)OC(C)(C)C)C(C)C | 849
CC[C@H](C)[C@H](NC(=O)[C@@H](CC1CCCCC1)C(O)C(O)[C@H](CC1CCCCC1)NC(=O)[C@H](Cc1c[nH]cn1)NC(=O)COc1cccc2ccccc12)C(=O)NCc1ccccn1 (stereo partly specified) | 58.5
COC(=O)[C@@H](NC(=O)[C@H](CC(C)C)NC(=O)[C@@H]1CCCN1C[C@@H](O)[C@H](Cc1ccccc1)NC(=O)[C@H](CC(N)=O)NC(=O)OC(C)(C)C)C(C)C | 16
CC[C@H](C)[C@H](NC(=O)[C@@H](Cc1ccccc1)[C@@H](O)[C@H](O)[C@H](Cc1ccccc1)NC(=O)[C@H](Cc1c[nH]cn1)NC(=O)COc1cccc2ccccc12)C(=O)NCc1ccccn1 | 27

Second part, the molecule after the results:

IC50 [nM] | Compound
13 | CC(C)CCNC(=O)N(C[C@@H](O)[C@H](Cc1ccccc1)NC(=O)[C@H](CC(N)=O)NC(=O)OCc1ccccc1)C(C)(C)C
2 | CC(C)(C)NC(=O)C1CCCCN1C[C@H](O)[C@H](Cc1ccccc1)NC(=O)C(CC(N)=O)NC(=O)c1ccc2ccccc2n1 (stereo partly specified)
5090 | C[C@H](NC(=O)N(C[C@@H](O)[C@H](Cc1ccccc1)NC(=O)[C@H](CC(N)=O)NC(=O)OCc1ccccc1)C(C)(C)C)c1ccccc1
12 | CSCC(NC(=O)c1ccc2ccccc2n1)C(=O)N[C@@H](Cc1ccccc1)[C@@H](O)CN1CCCCC1C(=O)NC(C)(C)C (stereo partly specified)
470 | CC(C)(C)NC(=O)[C@@H]1CCCCN1C[C@@H](O)[C@H](Cc1ccccc1)NC(=O)[C@H](CC(N)=O)NC(=O)c1ccc2ccccc2n1
105 | CC(C)(C)N(C[C@@H](O)[C@H](Cc1ccccc1)NC(=O)[C@H](CC(N)=O)NC(=O)OCc1ccccc1)C(=O)NCc1ccncc1
126 | CCCCN(C[C@@H](O)[C@H](Cc1ccccc1)NC(=O)[C@H](CC(N)=O)NC(=O)c1ccc2ccccc2n1)C(=O)NCC(C)C
29 | CC(C)(C)N(C[C@@H](O)[C@H](Cc1ccccc1)NC(=O)[C@H](CC(N)=O)NC(=O)OCc1ccccc1)C(=O)NCC1CCCCC1
3 | CC(C)(C)N(C[C@@H](O)[C@H](Cc1ccccc1)NC(=O)[C@H](CC(N)=O)NC(=O)c1ccc2ccccc2n1)C(=O)NCc1ccccc1
519 | CCCN(C[C@@H](O)[C@H](Cc1ccccc1)NC(=O)[C@H](CC(N)=O)NC(=O)OCc1ccccc1)C(=O)NCC(C)C
942 | CCCCN(C[C@@H](O)[C@H](Cc1ccccc1)NC(=O)[C@H](CC(N)=O)NC(=O)OCc1ccccc1)C(=O)NCC(C)C
35 | CC(C)CNC(=O)N(C[C@@H](O)[C@H](Cc1ccccc1)NC(=O)[C@H](CC(N)=O)NC(=O)OCc1ccccc1)C(C)(C)C
19 | CC(C)(C)N(C[C@@H](O)[C@H](Cc1ccccc1)NC(=O)[C@H](CC(N)=O)NC(=O)c1ccc2ccccc2n1)C(=O)NCc1ccncc1
1500 | CC(C)CNC(=O)N(C)C[C@@H](O)[C@H](Cc1ccccc1)NC(=O)[C@H](CC(N)=O)NC(=O)OCc1ccccc1
23 | CC(C)(C)OC(=O)[C@@H]1CCCN1C[C@H](O)[C@H](Cc1ccccc1)NC(=O)[C@H](CC(N)=O)NC(=O)c1ccc2ccccc2n1
19 | CC(C)(C)N(C[C@@H](O)[C@H](Cc1ccccc1)NC(=O)[C@H](CC(N)=O)NC(=O)OCc1ccccc1)C(=O)NCc1ccccc1
5 | CC(C)(C)N(C[C@@H](O)[C@H](Cc1ccccc1)NC(=O)[C@H](CC(N)=O)NC(=O)c1ccc2ccccc2n1)C(=O)NCC1CCCCC1
260 | CC(C)CNC(=O)N(C[C@@H](O)[C@H](Cc1ccccc1)NC(=O)[C@H](CC(N)=O)NC(=O)OCc1ccccc1)C(C)C
6.01 | CC(C)CNC(=O)N(C[C@@H](O)[C@H](Cc1ccccc1)NC(=O)[C@H](CC(N)=O)NC(=O)c1ccc2ccccc2n1)C(C)(C)C
6500 | C[C@@H](NC(=O)N(C[C@@H](O)[C@H](Cc1ccccc1)NC(=O)[C@H](CC(N)=O)NC(=O)OCc1ccccc1)C(C)(C)C)c1ccccc1
3 | CC(C)CCNC(=O)N(C[C@@H](O)[C@H](Cc1ccccc1)NC(=O)[C@H](CC(N)=O)NC(=O)c1ccc2ccccc2n1)C(C)(C)C
330 | CCN(C[C@@H](O)[C@H](Cc1ccccc1)NC(=O)[C@H](CC(N)=O)NC(=O)OCc1ccccc1)C(=O)NCC(C)C

From ChEMBL document CHEMBL1126565, “Three-dimensional QSAR of human immunodeficiency virus (I) protease inhibitors. 1. A CoMFA study employing experimentally-determined alignment rules” (J Med Chem, 1993)
